Data published in patent US20230121689A1, “CEPHALOSPORIN ANTIBACTERIAL COMPOUND AND PHARMACEUTICAL APPLICATION THEREOF” (priority 2020, published 2023).
≈ marks a conversion by molar mass, not a printed value. Like-named read-outs stand apart in the source and are kept apart here.

What was measured:
Assay type in all cases: cell-based
[1] = test system: Carbapenem-resistant Enterobacteriaceae (CRE); assay: Test Example 1: antibacterial activity test (MIC)
Experimental: (§1) The test compounds were diluted in a gradient and used for an MIC assay on the test strains. The test compounds at an initial assay concentration of 32 μg/mL were diluted in a 2-fold gradient (11 concentration points in total), and two duplicate wells were set for each concentration. Additional wells without drug dosing were set as growth controls. The minimum inhibitory concentration (MIC) assay was performed with reference to the Clinical and Laboratory Standards Institute (CLSI) guidelines.
(§2) After the frozen strains were subcultured, a single colony was picked and re-suspended in normal saline or sterile water in a tube. The bacterial suspension was vortexed and adjusted to 0.5 McF using a spectrophotometer at the wavelength of 530 nm. The bacterial solution was taken by a pipette, added to a culture medium, diluted and mixed well, and seeded to a bacterial assay plate.
(§3) The 96-well plate was affixed with a disposable sealing film, shaken and mixed well, and visually observed using a plate reader. The minimum concentration of the compounds capable of inhibiting the growth of bacteria was defined as MIC as compared to the growth controls.

[2] = test system: Carbapenem-resistant Acinetobacter baumannii (CRAB); assay: Test Example 1: antibacterial activity test (MIC)
Experimental: as §1, §2, §3

[3] = test system: Carbapenem-resistant Pseudomonas aeruginosa (CRPA); assay: Test Example 1: antibacterial activity test (MIC)
Experimental: as §1, §2, §3

[4] = test system: Control Strain Pseudomonas aeruginosa ATCC 27853; assay: Test Example 2: antibacterial activity test (MIC); details: ATCC27853, ID-CAMHB, ATCC 27853, read-out: ID-CAMHB, MIC
Experimental: (§4) 1. The test compounds were dissolved in sterile normal saline, vortexed for uniformly mixing, and diluted in a 2-fold dilution with the sterile normal saline (11 concentration points in total). The test concentration range was 32-0.031 μg/mL, and two duplicate wells were set for each concentration. Additional wells without drug dosing were set as growth controls. 2. 4 μL of the diluent was added to 196 μL of the bacterial suspension in a 96-well plate (the bacterial count in the bacterial suspension was 2-8×10^5 colony forming units/mL). 3.
(§5) The minimum inhibitory concentration (MIC) assay was performed with reference to the Clinical and Laboratory Standards Institute (CLSI) guidelines.

[5] = test system: Carbapenem-resistant Enterobacteriaceae (CRE, Klebsiella pneumoniae); assay: Test Example 2: antibacterial activity test (MIC); details: ID-CAMHB, read-out: ID-CAMHB, MIC
Experimental: as §4, §5

[6] = test system: Control strain Escherichia coli ATCC 25922; assay: Test Example 2: antibacterial activity test (MIC); details: ATCC25922, ID-CAMHB, ATCC 25922, read-out: ID-CAMHB, MIC
Experimental: as §4, §5

[7] = test system: Carbapenem-resistant Acinetobacter baumannii (CRAB, Acinetobacter baumannii); assay: Test Example 2: antibacterial activity test (MIC); details: ID-CAMHB, read-out: ID-CAMHB, MIC
Experimental: as §4, §5

[8] = test system: Carbapenem-resistant Pseudomonas aeruginosa (CRPA, Pseudomonas aeruginosa); assay: Test Example 2: antibacterial activity test (MIC); details: ID-CAMHB, read-out: ID-CAMHB, MIC
Experimental: as §4, §5

`CC(C)(O/N=C(\C(=O)N[C@@H]1C(=O)N2C(C(=O)[O-])=C(C[N+]3(CC4(NC(=O)c5ccc(O)c(O)c5Cl)CC4)CCCC3)CS[C@H]12)c1csc(N)n1)C(=O)O` [Compound 2] showed an MIC ([1]; CRE strain No. 100109) of 1 µg/mL (≈ 1.28 µM), an MIC ([1]; CRE strain No. 100186) of 1.5 µg/mL (≈ 1.93 µM) and an MIC ([1]; CRE strain No. 110502) of 6 µg/mL (≈ 7.71 µM). For the same compound, the MIC ([1]; CRE strain No. 110525) was 2 µg/mL (≈ 2.57 µM), the MIC ([1]; CRE strain No. 311277) was 1.5 µg/mL (≈ 1.93 µM) and the MIC ([2]; CRAB strain No. 100085) was 0.5 µg/mL (≈ 0.642 µM). For the same compound, the MIC ([2]; CRAB strain No. 100333) was 2 µg/mL (≈ 2.57 µM), the MIC ([2]; CRAB strain No. 110440) was 3 µg/mL (≈ 3.85 µM) and the MIC ([2]; CRAB strain No. 110477) was 2 µg/mL (≈ 2.57 µM). For the same compound, the MIC ([2]; CRAB strain No. 110517) was 0.5 µg/mL (≈ 0.642 µM), the MIC ([3]; CRPA strain No. 100110) was 0.031 µg/mL (≈ 0.0398 µM) and the MIC ([3]; CRPA strain No. 110163) was 0.5 µg/mL (≈ 0.642 µM). The MIC ([3]; CRPA strain No. 110224) was 0.75 µg/mL (≈ 0.964 µM), the MIC ([3]; CRPA strain No. 110358) was 1 µg/mL (≈ 1.28 µM) and the MIC ([3]; CRPA strain No. 110390) was 0.5 µg/mL (≈ 0.642 µM). The MIC [4] was 0.0625 µg/mL (≈ 0.0803 µM), the MIC ([5]; FDA-CDC AR-BANK #0361 (TEM-1; SHV-12; KPC-2)) was 1 µg/mL (≈ 1.28 µM) and the MIC ([5]; FDA-CDC AR-BANK #0362 (TEM-1; SHV-11; KPC-2)) was 0.5 µg/mL (≈ 0.642 µM). The MIC ([5]; FDA-CDC AR-BANK #0363 (TEM-1; SHV-12; KPC-2)) was 0.5 µg/mL (≈ 0.642 µM), the MIC ([5]; FDA-CDC AR-BANK #0438 (aph(3′)-Ia, dfrA12, KPC-3, OmpK35, oqxA, oqxB, SHV-11)) was 1 µg/mL (≈ 1.28 µM) and the MIC ([5]; FDA-CDC AR-BANK #0453 (KPC-3, OmpK35, oqxA, oqxB, SHV-11, TEM-1B)) was 2 µg/mL (≈ 2.57 µM). It also gave an MIC [6] of 0.125 µg/mL (≈ 0.161 µM), an MIC ([7]; FDA-CDC AR-BANK #0036 (strB, OXA-65, OXA-24, strA, sul2)) of 0.5 µg/mL (≈ 0.642 µM) and an MIC ([7]; FDA-CDC AR-BANK #0052 (OXA-58, OXA-100, sul2)) of 0.0625 µg/mL (≈ 0.0803 µM). For the same compound, the MIC ([7]; FDA-CDC AR-BANK #0063 (OXA-23, OXA-65, OXA-24, sul2)) was 16 µg/mL (≈ 20.6 µM), the MIC ([7]; FDA-CDC AR-BANK #0070 (OXA-58, OXA-100, sul2)) was 0.0625 µg/mL (≈ 0.0803 µM) and the MIC ([7]; FDA-CDC AR-BANK #0101 (strB, OXA-65, OXA-24, strA, sul2)) was 0.5 µg/mL (≈ 0.642 µM). The MIC ([8]; FDA-CDC AR-BANK #0439 (aac(6′)-Il, aadA1b, BCR1, IMP-18, OXA-50)) was 0.5 µg/mL (≈ 0.642 µM), the MIC ([8]; FDA-CDC AR-BANK #0441 (KPC-2)) was 2 µg/mL (≈ 2.57 µM) and the MIC ([8]; FDA-CDC AR-BANK #0444 (aac(6′)-Il, dfrB5, OXA-4, tet(G), VIM-2)) was 4 µg/mL (≈ 5.14 µM). It also gave an MIC ([8]; FDA-CDC AR-BANK #0457 (aadA6, VIM-2)) of 0.125 µg/mL (≈ 0.161 µM).
